The text below walks through data of publication PMC8305571 (2021).

Assay [1] deals with Hema (DNA, G4) GGGGTCGGGCGGGCCGGGTG
As to the kind of experiment: CD melting, 264 nm. The settings on record: 50 mM KCl; mBR buffer, pH 7.0; derived from two Tm (72.0, 86.0); indicative values.

Assay [2] deals with ionK (DNA, G4) GGGTTAGGGTTAGGGTAGGG
Description: CD melting, 294 nm. The note with it: 50 mM NaCl; 25 mM mBR buffer, pH 7.0; ligand concentration not given; indicative value.

In assay [3] the test system is Scle (DNA, G4) TGGGGGGGTGGGTGGGT
As to the kind of experiment: CD melting, 264 nm. The note with it: 50 mM KCl; mBR buffer, pH 7.0; derived from two Tm (81.5, >100); indicative values.

For assay [4] the test system is unchanged. As to the kind of experiment: induced CD and UV-Vis titration. The settings on record: 50 mM KCl; mRB buffer, pH 7.0; 130 µM RhG, DNA up to 27 µM.
Assay [5] deals with STAT (DNA, G4) GGGCGGGCGGGCGGG
As to the kind of experiment: CD melting, 264 nm. The settings on record: mBR buffer, pH 7.0, indicative values.

Assay [6] relates to G3A (DNA, G4) GGGAGGGAGGGAGGGA
Description: CD titration, PAGE. The settings on record: 50 mM NaCl or KCl; mBR buffer, pH 7.0; up to 260 µM RhG (CD), 130 µM (PAGE).

Assay [7] concerns HTR (DNA, G4) GGGTTAGGGTTAGGGTTAGGG
Description: temperature gradient gel electrophoresis (TGGE). The note with it: 2.5 mM KCl; 25 mM mBR buffer, pH 7.0; 260 µM RhG in gel; antiparallel form; parallel form >62 ± 2 °C with RhG.

The subject of assay [8] is TBA (DNA, G4) GGTTGGTGTGGTTGG
Description: CD melting, 294 nm. The settings on record: 50 mM KCl; mBR buffer, pH 7.0; derived from two Tm (46.5, 48.5); indicative values.

For assay [9], the system named is TBA (DNA, G4) GGTTGGTGTGGTTGG
Description: CD melting, 294 nm. The note with it: 50 mM NaCl; 25 mM mBR buffer, pH 7.0; ligand concentration not given; indicative value.

For assay [10], the system named is HTR (DNA, G4) GGGTTAGGGTTAGGGTTAGGG
Description: CD melting, 294 nm. The note with it: 50 mM KCl; mBR buffer, pH 7.0; derived from two Tm (63.5, 64.0); indicative values.

Assay [11] relates to G3C (DNA, G4) GGGCGGGCGGGCGGGC
Description: CD titration, PAGE. The note with it: 50 mM NaCl or KCl; mBR buffer, pH 7.0; up to 260 µM RhG (CD), 130 µM (PAGE).

For assay [12], the system named is TFO1 (DNA, triplex) AAAAAAAACCCCTTTTTTTTCCCCTTTTTTTT
As to the kind of experiment: CD melting, 282 nm. The settings on record: no added salt; mBR buffer, pH 7.0; derived from two Tm (20.4, 17.7); indicative values.

The test system of assay [13] is Scle (DNA, G4) TGGGGGGGTGGGTGGGT
Description: CD melting, 264 nm. The note with it: 50 mM NaCl; 25 mM mBR buffer, pH 7.0; ligand concentration not given; indicative value.

The subject of assay [14] is VEGF (DNA, G4) GGGGCGGGCCGGGGGCGGG
As to the kind of experiment: CD melting, 264 nm. The settings on record: mBR buffer, pH 7.0, indicative values.

In assay [15] the test system is HTR (DNA, G4) GGGTTAGGGTTAGGGTTAGGG
Description: CD melting, 294 nm. The note with it: 50 mM NaCl; 25 mM mBR buffer, pH 7.0; ligand concentration not given; indicative value.

Assay [16] has as its system Hema (DNA, G4) GGGGTCGGGCGGGCCGGGTG
As to the kind of experiment: CD melting, 264 nm. The note with it: 50 mM NaCl; 25 mM mBR buffer, pH 7.0; ligand concentration not given; indicative value.

Assay [17] deals with ionK (DNA, G4) GGGTTAGGGTTAGGGTAGGG
Description: CD melting, 294 nm. The settings on record: 50 mM KCl; mBR buffer, pH 7.0; derived from two Tm (59.1, 58.0); indicative values.

Take `CCN=c1cc2oc3cc(NCC)c(C)cc3c(-c3ccccc3C(=O)OCC)c-2cc1C`: the “ΔTm (Tm shift)” value in assay [1] is 14.0 °C; in assay [3], over 18.5 °C; in [8], 2.0 °C; in [10], 0.5 °C; in [12], -2.7 °C. In addition, the Tm in [2] is 48.5 (no ligand 46.2) °C; in assay [7], 50.6 (no ligand 46.5) °C; in assay [9] it was 26.8 (no ligand 20.0) °C; in assay [13], 77.0 (no ligand 62.0) °C; in [15], 52.0 (no ligand 52.0) °C; in [16], 54.3 (no ligand ND) °C. Moreover, the binding entry in assay [4], in assay [6] and in assay [11] was “yes” in each case. Further, the “ΔTm (RhG minus no ligand)” value was over 7.2 °C in assay [5] (50 mM KCl, derived from two Tm (92.8, >100)); 22.0 °C in [5] (50 mM NaCl, derived from two Tm (54.5, 76.5)); 2.3 °C in [14] (50 mM KCl, derived from two Tm (85.6, 87.9)); 34.5 °C in [14] (50 mM NaCl, derived from two Tm (47.5, 82.0)); -1.1 °C in assay [17].
